Source: article PMC10733469, “Antiviral activity of chrysin and naringenin against porcine epidemic diarrhea virus infection” (Frontiers in Veterinary Science, 2023)
Converted amounts (≈) assume the structure as drawn. Read-outs that look alike come from different tables or passages of the source.

How the values were obtained:
[1] = system: PEDV DY; experiment: Antiviral activity assay (MTT, virus inhibition rate), PEDV DY; details: Porcine epidemic diarrhea virus, Vero C1008, read-out: IC50 PEDV DY
[2] = system: PEDV; experiment: Indirect immunofluorescence assay of viral load; details: Vero E6 cells, 48 h after infection, concentration dependent
[3] = system: PEDV; experiment: Time-of-addition assay, post-viral entry stage (qPCR, western blot); format: cell-based, porcine epidemic diarrhea virus; details: for viral nucleic acid copy numbers vs control group: qPCR, p < 0.05; for expression level of PEDV N protein: western blot, concentration dependent
[4] = system: PEDV DY; experiment: Virus titration (TCID50, Reed-Muench), PEDV DY; format: cell-based, porcine epidemic diarrhea virus; details: for virus titer vs virus control group: PEDV DY, 24, 36 and 48 hpi, p < 0.01
[5] = system: PEDV CV777; experiment: Antiviral activity assay (MTT, virus inhibition rate), PEDV CV777; details: Porcine epidemic diarrhea virus, Vero C1008, read-out: IC50 PEDV CV777
[6] = system: PEDV; experiment: Viral quantification by qPCR at different time points; format: cell-based, porcine epidemic diarrhea virus; details: 24 hpi and 48 hpi, p < 0.001
[7] = system: PEDV CV777; experiment: Virus titration (TCID50, Reed-Muench), PEDV CV777; format: cell-based, porcine epidemic diarrhea virus; details: for virus titer vs virus control group: PEDV CV777, 24, 36 and 48 hpi, p < 0.01
[8] = system: mice; details: animal tests; cited from earlier work
[9] = Cytotoxicity assay (MTT); format: cell-based; details: African green monkey
Procedure: (§1) Then, different concentrations of compounds in DMEM were added to cells and incubated for another 48 h. […] MTT solution (10 μL per well) was added and incubated for another 4 h at 37°C, discarding the native compounds and using dimethyl sulfoxide (DMSO) to dissolve products for 10 min at 37°C. Microplate reader (BioTek, Winooski, VT, United States) was used to measure the 96-well plate at 570 nm, and the cell viability (%) was calculated by OD values ([23]). […] The percentage of relative cell viability was calculated according to the formula: […]%=[…]

[10] = system: PEDV; experiment: Time-of-addition assay, viral entry stage (qPCR); format: cell-based, porcine epidemic diarrhea virus
[11] = system: PEDV; experiment: Time-of-addition assay, prophylactic stage (qPCR, western blot); format: cell-based, porcine epidemic diarrhea virus; details: for viral mRNA quantitation: qPCR; for expression level of PEDV N protein: western blot, concentration dependent
[12] = system: enterovirus 71; parameters: method as in PMID 24598537; details: replication of enterovirus 71, by inhibiting 3CLpro protein activity; cited from earlier work
[13] = system: PEDV; experiment: Antiviral activity assay, PEDV strain not stated; details: Porcine epidemic diarrhea virus, read-out: IC50 values against PEDV
[14] = system: DENV-2; parameters: method as in doi:10.1186/1743-422X-8-560; details: 50 μg/mL after virus incubation; cited from earlier work
[15] = system: human Huh 7 it-1 cell line; parameters: method as in doi:10.1088/1755-1315/462/1/012033; details: cited from earlier work
[16] = system: DENV-2; parameters: method as in doi:10.1088/1755-1315/462/1/012033; details: cited from earlier work
[17] = system: Vero E6 cells; experiment: Cytotoxicity assay (MTT); format: cell-based
Procedure: as §1

[18] = Vero E6 cells, MTT, 48 h incubation, read-out: CC50

Which IC50 [1] does the source give for O=c1cc(-c2ccccc2)oc2cc(O)cc(O)c12 [Chrysin, chrysin] here?
Its IC50 is 2.48 ± 0.59 µg/mL (≈ 9.77 µM).

What about the “green fluorescence of viral proteins (IFA)” value [2] of the same compound?
Its value is “diminished to varying extents”.

And the “viral nucleic acid copy numbers vs control group” value [3]?
The value was “significantly lower than those in the control group”.

And the “expression level of PEDV N protein” value [3]?
The value was “significantly inhibit”.

And the “virus titer vs virus control group” value [4]?
Its value is “significantly lower”.

And the IC50 [5]?
Its IC50 is 2.19 ± 2.25 µg/mL (≈ 8.62 µM).

What about the “virus copy numbers vs control group” value ([6]; 50 μg/mL) of the same compound?
The value was “significantly lower than in the control group”.

And the “virus titer vs virus control group” value [7]?
The value was “significantly lower”.

What about the toxic effects [8] of the same compound?
The toxic effects was “no toxic effects on mice”.

And the CC50 at 48 h [9]?
The CC50 at 48 h was 83.6 ± 2.12 µg/mL (≈ 329 µM).

And the “inhibitory effect, nucleic acid copy numbers vs control group” value [10]?
The value was “did not show significant inhibitory effects”.

What about the “viral mRNA quantitation” value ([11]; 12.5 μg/mL) of the same compound?
Its value is 3.87 × 10^6 copies/μL.

What about the “viral mRNA quantitation” value ([11]; 25 μg/mL) of the same compound?
Its value is 1.78 × 10^6 copies/μL.

And the “viral mRNA quantitation” value ([11]; 50 μg/mL)?
Its value is 1.19 × 10^6 copies/μL.

What about the “expression level of PEDV N protein” value [11] of the same compound?
Its value is “significantly inhibit”.

What about the IC50 [12] of the same compound?
Its IC50 is 24.1 µM.

Which IC50 [1] does the source give for COC(=O)C1=CO[C@@H](O[C@@H]2O[C@H](CO)[C@@H](O)[C@H](O)[C@H]2O)[C@@H]2C(CO)=CC[C@H]12 [Geniposide, geniposide] here?
Its IC50 is greater than 100 µg/mL.

And the IC50 [5]?
The IC50 was greater than 100 µg/mL.

And the CC50 at 48 h [9, 18]?
The CC50 at 48 h was 10.4 ± 2.03 µg/mL (≈ 26.7 µM).

And the IC50 [13]?
Its IC50 is greater than 100 µg/mL.

Which results are given for CC1(C)[C@@H](O)CC[C@]2(C)[C@H]3C(=O)C=C4[C@@H]5C[C@@](C)(C(=O)O)CC[C@]5(C)CC[C@@]4(C)[C@]3(C)CC[C@@H]12 [Glycyrrhetinic acid, glycyrrhetinic acid]?
IC50 [1]: > 100 µg/mL; IC50 [5]: > 100 µg/mL; CC50 at 48 h [9]: 17.4 ± 4.61 µg/mL (≈ 37 µM); IC50 [13]: > 100 µg/mL

With O=C1C[C@@H](c2ccc(O)cc2)Oc2cc(O)cc(O)c21 [Naringenin, naringenin] as the compound, how does the IC50 [1] read?
The IC50 was 4.5 ± 2.25 µg/mL (≈ 16.5 µM).

And the “reduction of DENV-2 RNA levels” value [14]?
The value was 50%.

What about the “green fluorescence of viral proteins (IFA)” value [2] of the same compound?
The value was “diminished to varying extents”.

What about the “viral nucleic acid copy numbers vs control group” value [3] of the same compound?
The value was “significantly lower than those in the control group”.

And the “expression level of PEDV N protein” value [3]?
The value was “significantly inhibit”.

And the “virus titer vs virus control group” value [4]?
The value was “significantly lower”.

What about the IC50 [5] of the same compound?
Its IC50 is 4.39 ± 0.96 µg/mL (≈ 16.1 µM).

And the “virus copy numbers vs control group” value ([6]; 12.5 μg/mL)?
The value was “significantly lower than in the control group”.

What about the “virus titer vs virus control group” value [7] of the same compound?
Its value is “significantly lower”.

What about the CC50 at 48 h [9, 18] of the same compound?
Its CC50 at 48 h is 61.9 ± 0.97 µg/mL (≈ 227 µM).

What about the “inhibitory effect, nucleic acid copy numbers vs control group” value [10] of the same compound?
The value was “did not show significant inhibitory effects”.

What about the “viral mRNA quantitation” value ([11]; 3.13 μg/mL) of the same compound?
The value was 4.79 × 10^6 copies/μL.

And the “viral mRNA quantitation” value ([11]; 6.25 μg/mL)?
The value was 3.21 × 10^6 copies/μL.

What about the “viral mRNA quantitation” value ([11]; 12.5 μg/mL) of the same compound?
The value was 2.17 × 10^6 copies/μL.

What about the “expression level of PEDV N protein” value [11] of the same compound?
Its value is “significantly inhibit”.

What does the source list for CC1(C)CC[C@]2(C(=O)O)CC[C@]3(C)C(=CC[C@@H]4[C@@]5(C)CC[C@H](O)C(C)(C)[C@@H]5CC[C@]43C)[C@@H]2C1 [Oleanolic acid, oleanolic acid]?
IC50 [1]: > 100 µg/mL; IC50 [5]: > 100 µg/mL; CC50 at 48 h [9, 18]: 4.05 ± 3.91 µg/mL (≈ 8.88 µM); IC50 [13]: > 100 µg/mL

With NC(=O)c1ncn([C@@H]2O[C@H](CO)[C@@H](O)[C@H]2O)n1 [Ribavirin, ribavirin, reference compound] as the compound, how does the IC50 [1] read?
The IC50 was 71.4 ± 3.78 µg/mL (≈ 292 µM).

What about the “virus titer vs virus control” value ([4]; PEDV DY, 36 h, p < 0.05) of the same compound?
Its value is “significantly lower”.

What about the IC50 [5] of the same compound?
The IC50 was 88 ± 3.78 µg/mL (≈ 360 µM).

And the “virus titer vs virus control” value ([7]; PEDV CV777, 36 h, p < 0.05)?
Its value is “significantly lower”.

And the CC50 at 48 h [9]?
Its CC50 at 48 h is 249 ± 4.2 µg/mL (≈ 1020 µM).

Which CC50 [15] does the source give for O=c1c(O)c(-c2ccc(O)c(O)c2)oc2cc(O)cc(O)c12 [quercetin] here?
Its CC50 is 217.113 µg/mL (≈ 718 µM).

And the “IC50 against DENV-2” value [16]?
The value was 18.41 µg/mL (≈ 60.9 µM).

What about the IC50 [13] of the same compound?
The IC50 was greater than 100 µg/mL.

With soy isoflavone as the compound, how does the CC50 [17] read?
The CC50 was 53.03 ± 2.30 µg/mL.
